Laboratory results: US20250179103A1, “6-OXODECAHYDROPYRROLO[1,2-A][1,5]DIAZOCINE AND 6-OXODECAHYDRO-4H-PYRROLO[2,1-D][1,5]THIAZOCINE DERIVATIVES AS STAT3 AND STAT6 MODULATORS FOR THE TREATMENT OF CANCER AND INFLAMMATORY CONDITIONS” (Recludix Pharma, Inc., priority 2022, published 2025)
pIC50: −log10 of the molar value.

Assays:
[1] = molecular target: T1, Recombinant STAT6 protein (STAT6(W123-T658)) (Homo sapiens, UniProt P42226); test: STAT6 Fluorescence Polarization (FP) Assay; assay type: binding; conditions: STAT6(W123-T658) 250 nM, probe 5-FAM-ApYKPFQDLI-NH2 2 nM, 45-minute incubation
T1 construct: Recombinant STAT6 protein (STAT6(W123-T658))
T1 sequence (P42226 123-658): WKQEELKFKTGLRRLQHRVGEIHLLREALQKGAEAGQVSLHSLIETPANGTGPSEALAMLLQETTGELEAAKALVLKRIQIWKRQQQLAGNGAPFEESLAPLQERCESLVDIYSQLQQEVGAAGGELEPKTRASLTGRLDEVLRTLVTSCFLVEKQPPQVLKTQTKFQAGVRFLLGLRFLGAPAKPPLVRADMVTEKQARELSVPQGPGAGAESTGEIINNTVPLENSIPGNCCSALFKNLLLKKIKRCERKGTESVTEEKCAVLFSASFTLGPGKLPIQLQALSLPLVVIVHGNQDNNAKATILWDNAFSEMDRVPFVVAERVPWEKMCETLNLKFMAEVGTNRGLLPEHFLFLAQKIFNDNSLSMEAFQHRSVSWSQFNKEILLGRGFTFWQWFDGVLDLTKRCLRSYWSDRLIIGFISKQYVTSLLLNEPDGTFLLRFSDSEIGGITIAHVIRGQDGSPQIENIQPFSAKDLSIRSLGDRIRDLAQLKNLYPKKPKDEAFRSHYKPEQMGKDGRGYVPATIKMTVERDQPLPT
In short: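 Displacement of a fluorescent phosphotyrosine peptide (5-FAM-ApYKPFQDLI-NH2, 2 nM) from STAT6(W123-T658) (250 nM), 1% DMSO, pH 7.4 HEPES buffer. After 45 min at room temperature, polarization (mP) was plotted versus log compound concentration and fitted by nonlinear regression to give IC50.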

[2] = molecular target: T2, Recombinant STAT3 protein (STAT3(G127-I722)) (Homo sapiens, UniProt P40763); test: STAT3 Fluorescence Polarization (FP) Assay; assay type: binding; conditions: STAT3(G127-I722) 25 nM, probe 5-FAM-GpYLPQTV-NH2 2 nM, 45-minute incubation
T2 construct: Recombinant STAT3 protein (STAT3(G127-I722))
In short: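 STAT3(G127-I722), 25 nM, was mixed with 2 nM 5-FAM-GpYLPQTV-NH2 probe in HEPES pH 7.4 buffer with 1% DMSO and serially diluted compound. FP (mP) was read after 45 min at room temperature. IC50 came from nonlinear regression.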

T2 sequence (P40763 127-722): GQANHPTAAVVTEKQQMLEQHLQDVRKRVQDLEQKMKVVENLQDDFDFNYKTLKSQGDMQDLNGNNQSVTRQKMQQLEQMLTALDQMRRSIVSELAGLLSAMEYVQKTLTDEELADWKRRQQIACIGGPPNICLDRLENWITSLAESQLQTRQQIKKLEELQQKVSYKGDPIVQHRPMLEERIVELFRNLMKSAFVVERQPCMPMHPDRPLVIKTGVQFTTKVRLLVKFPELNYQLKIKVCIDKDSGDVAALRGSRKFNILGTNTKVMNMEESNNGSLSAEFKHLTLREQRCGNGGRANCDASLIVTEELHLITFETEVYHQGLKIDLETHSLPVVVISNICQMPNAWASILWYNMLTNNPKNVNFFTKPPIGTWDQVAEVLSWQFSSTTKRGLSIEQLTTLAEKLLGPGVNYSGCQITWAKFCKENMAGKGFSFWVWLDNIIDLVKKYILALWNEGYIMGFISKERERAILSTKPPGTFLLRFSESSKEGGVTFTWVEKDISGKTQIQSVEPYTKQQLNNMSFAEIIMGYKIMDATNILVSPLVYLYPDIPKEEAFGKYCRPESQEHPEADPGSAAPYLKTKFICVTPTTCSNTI

Compound `CNC(=O)[C@@H]1CC[C@@H]2CCN(Cc3ccn4ccnc4c3)C[C@H](NC(=O)c3cc4cc(C(F)(F)P(=O)(O)O)ccc4s3)C(=O)N21` [Compound 272, (difluoro(2-(((5S,8S,10aR)-3-(imidazo[1,2-a]pyridin-7-ylmethyl)-8-(methylcarbamoyl)-6-oxodecahydropyrrolo[1,2-a][1,5]diazocin-5-yl)carbamoyl)benzo[b]thiophen-5-yl)methyl)phosphonic acid] has a pIC50 [1] of 4.52 to 5.52 and a pIC50 [2] of no less than 7.00.
Compound `CC(=O)N1CC[C@H]2CC[C@@H](C(=O)N3CCC4(C3)C(=O)Nc3ccccc34)N2C(=O)[C@@H](NC(=O)c2cc3cc(C(F)(F)P(=O)(O)O)ccc3s2)C1` (stereo partly drawn) [Compound 76, ((2-(((5S,8S,10aR)-3-acetyl-6-oxo-8-(2-oxospiro[indoline-3,3′-pyrrolidine]-1′-carbonyl)decahydropyrrolo[1,2-a][1,5]diazocin-5-yl)carbamoyl)benzo[b]thiophen-5-yl)difluoromethyl)phosphonic acid] has a pIC50 [1] of 5.52 to 6.52 and a pIC50 [2] of 6.00 to 7.00.
`CN(C(=O)[C@@H]1CC[C@@H]2CCN(C(=O)CCc3ccccc3)C[C@H](NC(=O)c3cc4cc(C(F)(F)P(=O)(O)O)ccc4[nH]3)C(=O)N21)c1ccccc1` [Compound 253, (difluoro(2-(((5S,8S,10aR)-8-(methyl(phenyl)carbamoyl)-6-oxo-3-(3-phenylpropanoyl)decahydropyrrolo[1,2-a][1,5]diazocin-5-yl)carbamoyl)-1H-indol-5-yl)methyl)phosphonic acid] gave a pIC50 [1] of no less than 6.52 and a pIC50 [2] of 5.00 to 6.00.
`CC(=O)N1CC[C@H]2CC[C@@H](C(=O)N3CCCC3Cc3cccc(Cl)c3)N2C(=O)[C@@H](NC(=O)c2cc3cc(C(F)(F)P(=O)(O)O)ccc3[nH]2)C1` (stereo partly drawn) [Compound 132, ((2-(((5S,8S,10aR)-3-acetyl-8-(2-(3-chlorobenzyl)pyrrolidine-1-carbonyl)-6-oxodecahydropyrrolo[1,2-a][1,5]diazocin-5-yl)carbamoyl)-1H-indol-5-yl)difluoromethyl)phosphonic acid] gave a pIC50 [1] of 5.52 to 6.52 and a pIC50 [2] of 5.00 to 6.00.
`CC(=O)N1CC[C@H]2CC[C@@H](C(=O)N3CCC3Cc3ccccc3)N2C(=O)[C@@H](NC(=O)c2cc3cc(C(F)(F)P(=O)(O)O)ccc3[nH]2)C1` (stereo partly drawn) [Compound 104, ((2-(((5S,8S,10aR)-3-acetyl-8-(2-benzylazetidine-1-carbonyl)-6-oxodecahydropyrrolo[1,2-a][1,5]diazocin-5-yl)carbamoyl)-1H-indol-5-yl)difluoromethyl)phosphonic acid] was tested, and the pIC50 [1] was 5.52 to 6.52 and the pIC50 [2] was 5.00 to 6.00.
For `CC(=O)N1CC[C@H]2CC[C@@H](C(=O)N3C[C@@H](C#N)[C@H](C4CCCCC4)C3)N2C(=O)[C@@H](NC(=O)c2cc3cc(C(F)(F)P(=O)(O)O)ccc3s2)C1` (relative stereo) [Compound 151, ((2-(((5S,8S,10aR)-3-acetyl-8-((rel-trans)-3-cyano-4-cyclohexylpyrrolidine-1-carbonyl)-6-oxodecahydropyrrolo[1,2-a][1,5]diazocin-5-yl)carbamoyl)benzo[b]thiophen-5-yl)difluoromethyl)phosphonic acid], the pIC50 [1] was 5.52 to 6.52 and the pIC50 [2] was 5.00 to 6.00.
In the case of `CC(=O)N1CC[C@H]2CC[C@@H](C(=O)N3Cc4cnn(-c5ccccc5)c4C3)N2C(=O)[C@@H](NC(=O)c2cc3cc(C(F)(F)P(=O)(O)O)ccc3s2)C1` [Compound 86, ((2-(((5S,8S,10aR)-3-acetyl-6-oxo-8-(1-phenyl-1,4,5,6-tetrahydropyrrolo[3,4-c]pyrazole-5-carbonyl)decahydropyrrolo[1,2-a][1,5]diazocin-5-yl)carbamoyl)benzo[b]thiophen-5-yl)difluoromethyl)phosphonic acid], the pIC50 [1] was 5.52 to 6.52 and the pIC50 [2] was no less than 7.00.
`CC(=O)N1CC[C@H]2CC[C@@H](C(=O)Nc3c(C)cc(-c4ccccc4)cc3C)N2C(=O)[C@@H](NC(=O)c2cc3cc(C(F)(F)P(=O)(O)O)ccc3s2)C1` [Compound 44, ((2-(((5S,8S,10aR)-3-acetyl-8-((3,5-dimethyl-[1,1′-biphenyl]-4-yl)carbamoyl)-6-oxodecahydropyrrolo[1,2-a][1,5]diazocin-5-yl)carbamoyl)benzo[b]thiophen-5-yl)difluoromethyl)phosphonic acid] showed a pIC50 [1] of 4.52 to 5.52 and a pIC50 [2] of 6.00 to 7.00.
`CC(=O)N1CC[C@H]2CC[C@@H](C(=O)N(C)C3CCCCC3)N2C(=O)[C@@H](NC(=O)c2cc3cc(C(F)(F)P(=O)(O)O)ccc3[nH]2)C1` [Compound 134] showed a pIC50 [1] of 5.52 to 6.52 and a pIC50 [2] of 5.00 to 6.00.
`O=C(N[C@H]1CN(C(=O)OCc2ccccc2)CC[C@H]2CC[C@@H](C(=O)Nc3ccc(-c4ccccc4)cc3)N2C1=O)c1cc2cc(C(F)(F)P(=O)(O)O)ccc2s1` [Compound 252, ((2-(((5S,8S,10aR)-8-([1,1′-biphenyl]-4-ylcarbamoyl)-3-((benzyloxy)carbonyl)-6-oxodecahydropyrrolo[1,2-a][1,5]diazocin-5-yl)carbamoyl)benzo[b]thiophen-5-yl)difluoromethyl)phosphonic acid] showed a pIC50 [1] of 5.52 to 6.52 and a pIC50 [2] of 5.00 to 6.00.
With `COc1ccc(CC2CCCN2C(=O)[C@@H]2CC[C@@H]3CCN(C(C)=O)C[C@H](NC(=O)c4cc5cc(C(F)(F)P(=O)(O)O)ccc5[nH]4)C(=O)N32)cc1` (stereo partly drawn) [Compound 131, ((2-(((5S,8S,10aR)-3-acetyl-8-(2-(4-methoxybenzyl)pyrrolidine-1-carbonyl)-6-oxodecahydropyrrolo[1,2-a][1,5]diazocin-5-yl)carbamoyl)-1H-indol-5-yl)difluoromethyl)phosphonic acid] the pIC50 [1] was 5.52 to 6.52 and the pIC50 [2] was 5.00 to 6.00.
With `CC(=O)N1CC[C@H]2CC[C@@H](C(=O)Nc3ccc4ccnnc4c3)N2C(=O)[C@@H](NC(=O)c2cc3cc(C(F)(F)P(=O)(O)O)ccc3s2)C1` [Compound 189, ((2-(((5S,8S,10aR)-3-acetyl-8-(cinnolin-7-ylcarbamoyl)-6-oxodecahydropyrrolo[1,2-a][1,5]diazocin-5-yl)carbamoyl)benzo[b]thiophen-5-yl)difluoromethyl)phosphonic acid] the pIC50 [1] was 5.52 to 6.52 and the pIC50 [2] was 5.00 to 6.00.
`CC(=O)N1CCC(NC(=O)c2ccc3ccc(C(F)(F)P(=O)(O)O)cc3c2)C(=O)N2C(CCC2C(=O)N2CC(C#N)C(c3ccccc3)C2)C1` (mixture of isomers) [Compound 4, ((7-(((5S,8S,10aR)-2-acetyl-8-((rel-trans)-3-cyano-4-phenylpyrrolidine-1-carbonyl)-6-oxodecahydropyrrolo[1,2-a][1,4]diazocin-5-yl)carbamoyl)naphthalen-2-yl)difluoromethyl)phosphonic Acid] gave a pIC50 [1] of no less than 6.52 and a pIC50 [2] of 5.00 to 6.00.
Work on `CCC(=O)NCCCN(C)C(=O)[C@@H]1CC[C@@H]2CCN(C(C)=O)C[C@H](NC(=O)c3cc4cc(C(=O)P(=O)(O)O)ccc4[nH]3)C(=O)N21` [Compound 27, (2-(((5S,8S,10aR)-3-acetyl-8-(methyl(3-propionamidopropyl)carbamoyl)-6-oxodecahydropyrrolo[1,2-a][1,5]diazocin-5-yl)carbamoyl)-1H-indole-5-carbonyl)phosphonic acid] yielded a pIC50 [1] of 4.52 to 5.52 and a pIC50 [2] of 5.00 to 6.00.
`CC(=O)N1CC[C@H]2CC[C@@H](C(=O)N3CCC(C(N)=O)c4cc(-c5ccccc5)ccc43)N2C(=O)[C@@H](NC(=O)c2cc3cc(C(F)(F)P(=O)(O)O)ccc3s2)C1` (stereo partly drawn) [Compound 116, ((2-(((5S,8S,10aR)-3-acetyl-8-(4-carbamoyl-6-phenyl-1,2,3,4-tetrahydroquinoline-1-carbonyl)-6-oxodecahydropyrrolo[1,2-a][1,5]diazocin-5-yl)carbamoyl)benzo[b]thiophen-5-yl)difluoromethyl)phosphonic acid] was tested, and the pIC50 [1] was 5.52 to 6.52 and the pIC50 [2] was 6.00 to 7.00.
`CC(=O)N1CC[C@H]2CC[C@@H](C(=O)N3CCC(N4CCCS4(=O)=O)C3)N2C(=O)[C@@H](NC(=O)c2cc3cc(C(F)(F)P(=O)(O)O)ccc3s2)C1` (stereo partly drawn) [Compound 78, ((2-(((5S,8S,10aR)-3-acetyl-8-(3-(1,1-dioxidoisothiazolidin-2-yl)pyrrolidine-1-carbonyl)-6-oxodecahydropyrrolo[1,2-a][1,5]diazocin-5-yl)carbamoyl)benzo[b]thiophen-5-yl)difluoromethyl)phosphonic acid] gave a pIC50 [1] of 5.52 to 6.52 and a pIC50 [2] of 6.00 to 7.00.
Work on `CC(=O)N1CC[C@H]2CC[C@@H](C(=O)N3CC(C#N)(c4ccccn4)C3)N2C(=O)[C@@H](NC(=O)c2cc3cc(C(F)(F)P(=O)(O)O)ccc3s2)C1` [Compound 88, ((2-(((5S,8S,10aR)-3-acetyl-8-(3-cyano-3-(pyridin-2-yl)azetidine-1-carbonyl)-6-oxodecahydropyrrolo[1,2-a][1,5]diazocin-5-yl)carbamoyl)benzo[b]thiophen-5-yl)difluoromethyl)phosphonic acid] yielded a pIC50 [1] of 5.52 to 6.52 and a pIC50 [2] of no less than 7.00.
